Measured values: ChEMBL document CHEMBL4602622, “Serendipitous discovery of aryl boronic acids as β-lactamase inhibitors” (Bioorg Med Chem Lett, 2020)

Experiment: Inhibition of Pseudomonas aeruginosa AmpC

IC50 [µM] | SMILES
> 100 | C1=NC2(CCc3ccc(-c4ccccc4)cc3C2)CN1 (stereo in doubt)
> 100 | O=C(c1nc(-c2ccccc2)cs1)N1CCC(c2ccccn2)C1 (stereo in doubt)
15 | C1=NC2(CCc3ccc(-c4ccccc4)cc3C2)CN1 (stereo in doubt; 1)
43 | O=C(c1nc(-c2ccccc2)cs1)N1CCC(c2ccccn2)C1 (stereo in doubt; 2)
